Reference: patent US7264314B2, “Adrenocorticotropic hormone analogs and related methods” (priority 2004, dated 2007)
No end group written: not given here.

Legend:
[1] = tested on: corticosterone production by explanted mouse adrenal halves; experiment: in vitro Serum-free Adrenal Inhibition Assay; type: cell-based
Experimental: A series of separate in vitro Serum-Free Adrenal Corticosteroid Inhibition Assay were performed to identify ACTH analogs that inhibit ACTH-induced adrenal hormone production in vitro. The concentration of corticosterone was measured according to the procedure of Example 4 in a serum-free culture medium containing explanted adrenal membrane and unmodified ACTH, AT814 ACTH analog (SEQ ID NO:20), or a combination of ACTH and AT814 at 100 ng/mL each. […] Corticosterone levels were taken at 2.0 hours after the adrenal membrane was placed in the serum free M199 medium, and each corticosterone level in Table 5 is an average of five samples.
The in vitro Serum-free Adrenal Inhibition Assay was performed according the following method. First, adrenals were removed from mice, dissected free of fat, and cut in half. See Costa, J L, et al., “Mutational analysis of evolutionarily conserved ACTH residues,” Gen Comp Endocrinol. 136:12–16 (2004); and Weber, M M, et al., “Postnatal overexpression of insulin-like growth factor II in transgenic mice is associated with adrenocortical hyperplasia and enhanced steroidogenesis,” Endocrinology 140:1537–1543 (1999), incorporated herein by reference.
Second, each adrenal half was placed into an individual well of a 4-well dish, one dish per mouse. Adrenal halves were incubated at 5% CO2, 37° C., in 0.5 ml serum-free medium (M199; Invitrogen) for 30 minutes to equilibrate.
Third, medium was removed and replaced by 0.5 ml M199 containing ACTH, AT814, or both, at 100 ng/ml each; controls had no peptides added.
Fourth, after 2 hours of incubation, the medium was removed, pooled for all four halves from each mouse, and assayed by corticosterone using standard RIA methods. corticosterone was determined by competitive radioimmunoassay (^125I RIA kit; ICN, Costa Mesa, Calif.) according to the manufacturer's recommendations. One microliter of serum was used per assay sample. Samples were run in duplicates.

[2] = tested on: ACTH-induced serum corticosterone in dexamethasone-suppressed mice; experiment: in vivo Serum Corticosteroid Inhibition Assay; design: species or system FVB/N mice; details: for reduction in serum corticosterone levels: ACTH alone = 100%; for serum corticosterone level at 180 minutes: blood one hour later; for corticosterone induction as percent of that of wildtype ACTH: 1 hour after last injection
From the text: An in vivo Serum Corticosteroid Inhibition Assay measures the level of corticosteroid or corticosterone in the blood stream of a subject after administering a compound having a first corticosteroid-producing biological activity and a test compound. The compound having the corticosteroid-producing biological activity can be any compound known to induce a detectable increase in corticosteroid production. The test compound can be administered before the corticosteroid-producing compound, in combination with the corticosteroid-producing compound, and/or after the corticosteroid-producing compound. The corticosteroid-producing compound is preferably ACTH, but can also be an ACTH analog with a known corticosteroid-producing biological activity. By performing a series of in vivo Serum Corticosteroid Inhibition Assays using ACTH analog test compounds, ACTH analogs that inhibit the production of corticosteroid relative to the corticosteroid-producing compound used can be identified. Preferably, the ACTH analogs identified in this manner inhibit the production of corticosteroid in the presence of endogenous unmodified ACTH.
The in vivo Serum Corticosteroid Inhibition Assay can include sequential administration of the test compound and the corticosteroid-producing compound by the following steps: first, an agent to suppress endogenous ACTH production was administered to a mouse subject, such as an intraperitoneal injection of dexamethasone; second, after waiting a suitable period of time for suppression of endogenous ACTH production (e.g., 1.5–2.0 hours), a test compound was administered to the mouse by a suitable method, such as intraperitoneal injection; third, after waiting a suitable period of time (e.g., 1 hour) for action of the test compound, a compound with corticosteroid-producing activity can be administered to the mouse by a suitable method, such as intraperitoneal injection; and fourth, after waiting a suitable period of time for the biological activity of both administered compounds to occur (e.g., 1 hour), a blood sample was taken from the subject and the level of serum corticosterone was determined by a suitable method, such as a competitive radioimmunoassay using ^125I RIA kit (ICN, Costa Mesa, Calif.). Optionally, steps two and three can be reversed (administering the corticosteroid-producing compound first, followed by administration of the test compound). The in vivo Serum Corticosteroid Inhibition Assay can also include co-administration of the test compound and the corticosteroid-producing compound by the following steps: first, an agent to suppress endogenous ACTH production was administered to a mouse subject, such as an intraperitoneal injection of dexamethasone; second, after waiting a suitable period of time for suppression of endogenous ACTH production (e.g., 1.5–2.0 hours), the corticosteroid-producing compound and a test compound were co-administered to the mouse by a suitable method, such as intraperitoneal injection; and third, after waiting a suitable period of time for the biological activity of both administered compounds to occur (e.g., 1 hour), a blood sample was taken from the subject and the level of serum corticosterone was determined by a suitable method, such as a competitive radioimmunoassay using ^125I RIA kit (ICN, Costa Mesa, Calif.). Also, in some embodiments, the first step in any in vivo Serum Corticosteroid Inhibition Assay can be replaced by a measurement of the initial endogenous corticosteroid or corticosteroid level in the blood of the subject in the manner of step four, instead of administering the agent to suppress ACTH production. Example 2 describes murine in vivo Serum Corticosteroid Inhibition Assays in detail.
A series of separate in vivo Serum Corticosteroid Inhibition Assays were performed to identify ACTH analogs that inhibit ACTH adrenal hormone production in vivo. […]

With “N-Ser^1-Tyr-Ser-Met-Glu^5-His-Phe-Arg-Trp-Gly^10-Lys-Pro-Val-Gly-Lys^15-Arg-Ala-Ala-Trp-Val^20-Lys-Val-Tyr-Pro-Ac (SYSMEHFRWGKPVGKRAAWVKVYP; not fully specified (C-terminus); printed as N-Ser1-Tyr-Ser-Met-Glu5-His-Phe-Arg-Trp-Gly10-Lys-Pro-Val-Gly-Lys15-Arg-Ala-Ala-Trp-Val20-Lys-Val-Tyr-Pro-Ac) [AT814]” as the substance, how does the “corticosterone induction relative to ACTH (FIG. 4)” value ([1]; AT814 alone) read?
The value was “negligible amount of corticosterone induction”.

And the “reduction of corticosterone induction compared to unmodified ACTH alone” value ([1]; equal amounts of AT814 and unmodified ACTH)?
The value was “about 65%”.

What about the “corticosterone level in M199 serum-free medium” value ([1]; peptide alone, 100 ng/mL, 2 hours after addition, average of five samples, listed as (KKRRP15-19KRAAW) mACTH(1–24)) of the same substance?
Its value is “about 290 mg/mL”.

And the “reduction in serum corticosterone levels” value ([2]; ACTH analog 30 minutes before ACTH)?
The value was roughly 65%.

What about the “serum corticosterone level at 180 minutes” value ([2]; ACTH analog at 90 minutes, mACTH(1–24) at 120 minutes after dexamethasone, listed as (KKRRP15-19KRAAW) mACTH(1–24)) of the same substance?
The value was 175 ± 27 ng/mL.

What about the “serum corticosterone level at 180 minutes” value ([2]; ACTH analog at 90 minutes, mACTH(1–24) at 120 minutes after dexamethasone, listed as (KKRRP15-19KRMW) mACTH(1–24)) of the same substance?
The value was 175 ± 27 ng/mL.

And the “reduction in serum corticosterone levels” value ([2]; ACTH analog concurrently with ACTH)?
Its value is roughly 90%.

And the “serum corticosterone level at 180 minutes” value ([2]; ACTH analog together with mACTH(1–24) at 120 minutes after dexamethasone)?
The value was 51 ± 8 ng/mL.

What about the “serum corticosterone level at 180 minutes” value ([2]; ACTH analog together with mACTH(1–24) at 120 minutes after dexamethasone, listed as (KKRRP15-19KRAAW) mACTH(1–24)) of the same substance?
The value was 51 ± 8 ng/mL.

And the “corticosterone induction as percent of that of wildtype ACTH” value ([2]; applied 30 minutes before the ACTH injection)?
The value was 35%.

And the “corticosterone induction as percent of that of wildtype ACTH” value ([2]; applied at the same time as the ACTH injection)?
The value was 10%.
